Like-named read-outs stand apart in the source and are kept apart here. Blank lines part the entries; values can stand above or below the compound they belong to.
Key:
Type in all cases: cell-based
histamine H3 -receptor [1] = target: T1, histamine H3 -receptor (Cavia porcellus, UniProt Q9JI35); assay: Antagonistic activity on the H3-receptor, ileum guinea pig
T1 construct: ileum guinea pig; from tissue; host or cells: guinea pig ileum
Description: (§1) The agonistics and antagonistics activities on the H3 -receptor of the various compounds were determined compared to histamine. The test methods used therefor are described in Van der Werf et al., Agents and Actions 20, 3/4 (1987) p. 239-243 and Menkveld et al., European Journal of Pharmacology, 186 (1990) p. 343-347.

histamine H3 -receptor [2] = assay: Antagonistic activity on the H3-receptor, test preparation not stated; conditions: Example 6 table, test method not stated
Description: as §1

histamine H3 -receptor [3] = assay: Agonistic activity on the H3-receptor, test preparation not stated; conditions: in words
Description: as §1

histamine H3 -receptor [4] = target: T1, histamine H3 -receptor; assay: Agonistic activity on the H3-receptor, ileum guinea pig; conditions: Table 3, agonistic activity, read-out: pD2 (converted)
Description: (§2) The agonistics and antagonistics activities on the H3 -receptor of the various compounds were determined compared to histamine.

histamine H3 -receptor [5] = target: T2, histamine H3 -receptor (Rattus norvegicus, UniProt Q9QYN8); assay: Antagonistic activity on the H3-receptor, rat cortex; conditions: Table 2, antagonistic activity, read-out: pA2 (converted)
T2 construct: Van der Werf et al., Agents and Actions 20, 3/4 (1987) p; 239-243; from tissue
T2 sequence (Q9QYN8 whole entry): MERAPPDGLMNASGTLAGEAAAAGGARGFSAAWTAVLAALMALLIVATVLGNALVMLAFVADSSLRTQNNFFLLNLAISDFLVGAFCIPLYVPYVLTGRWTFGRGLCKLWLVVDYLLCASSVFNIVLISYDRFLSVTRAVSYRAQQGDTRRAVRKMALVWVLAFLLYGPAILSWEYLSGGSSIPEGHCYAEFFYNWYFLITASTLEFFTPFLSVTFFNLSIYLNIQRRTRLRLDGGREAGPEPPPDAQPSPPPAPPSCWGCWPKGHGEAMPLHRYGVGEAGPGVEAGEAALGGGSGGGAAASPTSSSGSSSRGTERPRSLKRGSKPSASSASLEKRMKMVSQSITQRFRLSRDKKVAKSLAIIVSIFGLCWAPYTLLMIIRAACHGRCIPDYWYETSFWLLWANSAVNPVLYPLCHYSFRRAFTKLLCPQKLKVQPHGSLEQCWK
Description: as §1

histamine H3 -receptor [6] = target: T2, histamine H3 -receptor; assay: Agonistic activity on the H3-receptor, rat cortex; conditions: Table 3, agonistic activity, read-out: pD2 (converted)
Description: as §2

[7] = Table 2, antagonistic activity, ileum guinea pig, read-out: pA2 (converted)

T1 sequence (Q9JI35 whole entry): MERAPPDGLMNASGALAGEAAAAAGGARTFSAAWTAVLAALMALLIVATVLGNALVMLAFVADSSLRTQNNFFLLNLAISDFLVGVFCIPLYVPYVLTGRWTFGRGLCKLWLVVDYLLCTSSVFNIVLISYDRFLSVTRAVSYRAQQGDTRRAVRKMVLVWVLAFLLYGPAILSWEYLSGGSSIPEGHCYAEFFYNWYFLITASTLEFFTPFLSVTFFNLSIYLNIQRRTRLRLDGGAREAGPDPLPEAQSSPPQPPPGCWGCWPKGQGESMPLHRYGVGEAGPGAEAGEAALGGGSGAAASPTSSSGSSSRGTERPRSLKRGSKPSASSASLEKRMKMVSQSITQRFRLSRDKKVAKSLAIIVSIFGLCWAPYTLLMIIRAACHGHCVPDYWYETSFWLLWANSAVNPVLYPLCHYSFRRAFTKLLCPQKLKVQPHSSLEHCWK

Compound: N=C(NCCCCc1ccccc1)SCCc1c[nH]cn1 [VUF 9031]
Kb (histamine H3 -receptor [1]): 20 nM

Compound: Cc1ccc(CCNC(=N)SCCCc2c[nH]cn2)cc1 [VUF 4658, S-[3-(4(5)-imidazolyl)propyl]-N-[2-(4-methylphenyl)ethyl]isothiourea.2HBr]
pA2 (histamine H3 -receptor [2]): 8.4

Compound: N=C(NCCCc1ccccc1)SCCCc1c[nH]cn1 [VUF 9152, S-[3-(4(5)-imidazolyl)propyl]-N-(3-phenylpropyl)isothiourea]
Kb (histamine H3 -receptor [1]): 5.01 nM

Compound: N=C(NCCc1ccccc1)SCCCCc1c[nH]cn1 [VUF 4662, N-(2-phenylethyl)-S-[4-(4(5)-imidazolyl)butyl]isothiourea dipicrate]
pA2 (histamine H3 -receptor [2]): 8.13

Compound: N=C(NCCc1c[nH]cn1)Nc1ccccc1 [VUF 9006, N-[2-(imidazol-4-yl)ethyl]-N'-phenyl guanidine dipicrate]
Kb (histamine H3 -receptor [1]; [7]): 1580 nM

Compound: N=C(NCCc1ccccc1)SCCCc1c[nH]cn1 [VUF 9151, S-[3-(4(5)-imidazolyl)propyl]-N-(2-phenylethyl)isothiourea]
Kb (histamine H3 -receptor [1]): 1.58 nM

Compound: N=C(NCCCc1ccccc1)SCCc1c[nH]cn1 [VUF 9030]
Kb (histamine H3 -receptor [1]): 25.1 nM

Compound: N=C(NCc1ccccc1)SCCCCc1c[nH]cn1 [VUF 4661, N-benzyl-S-[4-(4(5)-imidazolyl)butyl]isothiourea dipicrate]
pA2 (histamine H3 -receptor [2]): 8.72

Compound: N=C(NCCSC(c1ccccc1)c1ccccc1)SCCc1c[nH]cn1 [VUF 8409]
Kb (histamine H3 -receptor [1]; [7]): 251 nM

Compound: N=C(NCCc1ccccc1)NCCc1cnc[nH]1 [VUF 9007, N-[2-(imidazol-4-yl)ethyl]-N'-phenyl-ethylguanidine dipicrate]
Kb (histamine H3 -receptor [1]; [7]): 501 nM

Compound: N=C(N)SCCc1c[nH]cn1 [VUF 8325, S-[2-(4-imidazolyl)ethyl]isothiourea]
agonistic activity (histamine H3 -receptor [3]): strong agonistic activity
EC50 (histamine H3 -receptor [4]): 7.94 nM

Compound: N=C(NCc1ccc(I)cc1)SCCCc1c[nH]cn1 [VUF 4652, N-(4-iodobenzyl)-S-[3-(4(5)-imidazolyl)propyl]isothiourea.2HBr]
pA2 (histamine H3 -receptor [2]): 9.21

Compound: COc1ccc(CCNC(=N)SCCCc2c[nH]cn2)cc1 [VUF 4659]
pA2 (histamine H3 -receptor [2]): 8.3

Kb (histamine H3 -receptor [1]; [7]): 12.6 nM
Compound: N=C(NCCCc1c[nH]cn1)NCCSCc1ccccc1 [VUF 8405]

Compound: N=C(NCc1ccccc1)SCCCc1c[nH]cn1 [VUF 9107, N-benzyl-S-[3-(4(5)-imidazolyl)propyl]isothiourea]
Kb (histamine H3 -receptor [1]): 1.58 nM

Kb (histamine H3 -receptor [1]; [7]): 2.51 nM
Compound: N=C(NCCSCc1ccccc1)SCCCc1c[nH]cn1 [VUF 8414, N-[2-(benzylthio)ethyl]-S-[3-(imidazol-4-yl)propyl]isothiourea]

Compound: N=C(NCc1ccc(Br)cc1)SCCCc1c[nH]cn1 [VUF 4651, N-(4-bromobenzyl)-S-[3-(4(5)-imidazolyl)propyl]isothiourea.2HBr]
pA2 (histamine H3 -receptor [2]): 9.77

Compound: N=C(NCCSCc1ccccc1)SCCc1c[nH]cn1 [VUF 8404]
Kb (histamine H3 -receptor [1]): 39.8 nM

Compound: CN=C(NCCc1ccccc1)SCCc1c[nH]cn1 [VUF 9051]
Kb (histamine H3 -receptor [1]): 15.8 nM

Kb (histamine H3 -receptor [1]; [7]): 1.58 nM
Compound: N=C(NCC1CCCCC1)SCCCc1c[nH]cn1 [VUF 9163, N-cyclohexylmethyl-S-[3-(4(5)-imidazolyl)propyl]isothiourea]

Compound: COc1ccc(CNC(=N)SCCCc2c[nH]cn2)cc1 [VUF 4654]
pA2 (histamine H3 -receptor [2]): 9.39

Compound: N=C(Nc1ccccc1)SCCc1c[nH]cn1 [VUF 8397]
Kb (histamine H3 -receptor [5]): 100 nM

Compound: N=C(NCCc1ccc(Cl)cc1)SCCCc1c[nH]cn1 [VUF 4657]
pA2 (histamine H3 -receptor [2]): 9.2

Compound: NC(=NCc1ccc(Cl)cc1)SCCCc1cnc[nH]1 [VUF 9153, S-[3-(4(5)-imidazolyl)propyl]-N-(4-chlorobenzyl)isothiourea]
Kb (histamine H3 -receptor [1]): 0.126 nM

Compound: N=C(NCc1ccc(F)cc1)SCCCc1c[nH]cn1 [VUF 4650, N-(4-fluorobenzyl)-S-[3-(4(5)-imidazolyl)propyl]isothiourea.2HBr]
pA2 (histamine H3 -receptor [2]): 9.38

EC50 (histamine H3 -receptor [6]): 39.8 nM
Compound: N=C(N)NCCc1c[nH]cn1 [VUF 83100]

Kb (histamine H3 -receptor [1]; [7]): 3.98 nM
Compound: NC(=NCCCCc1ccccc1)SCCCc1cnc[nH]1 [VUF 4571, S-[3-(4(5)-imidazolyl)propyl]-N-(4-phenylbutyl)isothiourea]

Compound: N=C(NCCc1ccccc1)SCCc1c[nH]cn1 [VUF 9029, S-[2-(imidazol-4-yl)ethyl]-N-(2-phenylethyl)-isothiourea]
Kb (histamine H3 -receptor [1]): 10 nM

Compound: Cc1ccc(CNC(=N)SCCCc2c[nH]cn2)cc1 [VUF 4653, S-[3-(4(5)-imidazolyl)propyl]-N-(4-methylbenzyl) isothiourea.2HBr]
pA2 (histamine H3 -receptor [2]): 9.36

Compound: N=C(NCc1ccccc1)SCCc1c[nH]cn1 [VUF 9028, N-benzyl-S-[2-(imidazol-4-yl)ethyl]isothiourea dipicrate]
Kb (histamine H3 -receptor [1]): 15.8 nM

EC50 (histamine H3 -receptor [4]): 50.1 nM
Compound: CNC(=N)SCCc1c[nH]cn1 [VUF 8621]

Compound: N=C(NCc1ccc(Cl)c(Cl)c1)SCCCc1c[nH]cn1 [VUF 4656, N-(3,4-dichlorobenzyl)-S-[3-(4(5)-imidazolyl)propyl] isothiourea.2HBr]
pA2 (histamine H3 -receptor [2]): 8.96

Compound: N=C(NCCc1ccc(Br)cc1)SCCCc1c[nH]cn1 [VUF 4598, N-[2-(4-bromophenyl)ethyl]-S-[3-(4(5)-imidazolyl)propyl] isothiourea.2HBr]
pA2 (histamine H3 -receptor [2]): 9.0
